Measured values from patent publication US9181234B2, “Antibacterial compounds” (priority 2010, dated 2015).
In brackets after ≈: the same amount, converted by molar mass.

Key:
physchem = details: pH 7.4, aqueous buffer, kinetic from dmso stock
Summary of the method: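 DMSO doubling dilutions were diluted twenty-fold into 100 mM citrate (pH 4), PBS (pH 7.4) or carbonate-bicarbonate (pH 9). After 24 h equilibration at room temperature, absorbance was read at 620 nm. The reported value is the highest concentration without measurable precipitate.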

[1] = tested on: Staphylococcus aureus (Isolate ID ATCC 29213); assay: Antibacterial activity, MIC, S. aureus; assay type: cell-based; details: Staphylococcus aureus, ATCC29213, Gram positive strain; broth microdilution or agar dilution
Summary of the method: (§1)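 Readout is the MIC, established according to CLSI standard M7-A7 using either agar dilution or broth microdilution.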

[2] = tested on: Streptococcus pyogenes (Isolate ID ATCC 51339); assay: Antibacterial activity, MIC, S. pyogenes; assay type: cell-based; details: Streptococcus pyogenes, ATCC51339, Gram positive strain; broth microdilution or agar dilution
Summary of the method: as §1

[3] = tested on: Haemophilus influenzae (Isolate ID ATCC 49247); assay: Antibacterial activity, MIC, H. influenzae; assay type: cell-based; details: Haemophilus influenzae, ATCC49247; Gram negative strain; broth microdilution or agar dilution
Summary of the method: as §1

[4] = tested on: Enterococcus faecalis (Isolate ID ATCC 29212); assay: Antibacterial activity, MIC, E. faecalis; assay type: cell-based; details: Enterococcus faecalis, ATCC29212; Gram positive strain; broth microdilution or agar dilution
Experimental: Bacterial Assay: Determination of Antibacterial Activity
Compounds of the invention were tested for antimicrobial activity by susceptibility testing in liquid or on solid media. MICs for compounds against each strain were determined by the broth microdilution or agar dilution method according to the guidelines of the Clinical Laboratories and Standards Institute, formerly the National Committee for Clinical Laboratory Standards (Clinical Laboratories and Standards Institute. Methods for Dilution Antimicrobial Susceptibility Tests for Bacteria That Grow Aerobically; Approved Standard—Seventh Edition. Document M7-A7. CLSI, Wayne, Pa., 2006; Clinical Laboratories and Standards Institute. The gram positive bacterial strains tested include S. aureus (Staphylococcus aureus (Isolate ID ATCC 29213)), E. faecalis (Enterococcus faecalis (Isolate ID ATCC 29212)) and S. pyogenes (Streptococcus pyogenes (Isolate ID ATCC 51339)). The gram negative bacterial strains tested include H. influenzae (Haemophilus influenzae (Isolate ID ATCC 49247))

Compound | solubility at 24 h (physchem; Solubility (pH 7.4)) [µg/mL] | solubility at 24 h (physchem; Solubility Range) [µg/mL] | MIC [1] [µg/mL] | MIC [2] [µg/mL] | MIC [3] [µg/mL] | MIC [4] [µg/mL]
CCNC(=O)Nc1nc2cc(-c3cnc(N4CCCCC4(C)C(=O)O)nc3)cc(-c3ccccn3)c2s1 (stereo not drawn) [Compound 2] | 6.25 (≈ 12.1 µM) | < 12.5 | 0.25 to 1 (≈ 0.483 to 1.93 µM) | 0.25 to 1 (≈ 0.483 to 1.93 µM) | 1 to 16 (≈ 1.93 to 30.9 µM) | 0.25 to 1 (≈ 0.483 to 1.93 µM)
CCNC(=O)Nc1nc2cc(-c3cnc(N4CCC(O)C(C)(C(=O)O)C4)nc3)cc(-c3ccccn3)c2s1 (stereo not drawn) [Compound 3] | 400 (≈ 750 µM) | 400 to 800 (≈ 750 to 1500 µM) | 1 to 16 (≈ 1.87 to 30 µM) | ≤ 0.25 | 1 to 16 (≈ 1.87 to 30 µM) | 0.25 to 1 (≈ 0.469 to 1.87 µM)
CCNC(=O)Nc1nc2cc(-c3cnc(N4CCC(C)(C(=O)O)CC4)c(C)c3)cc(-c3ccccn3)c2s1 [Compound 5] | ≥ 800 | > 800 | ≤ 0.25 | ≤ 0.25 | > 16 | ≤ 0.25
CCNC(=O)Nc1nc2cc(-c3cnc(N4CCC(C)(C(=O)O)CC4)nc3)cc(-c3ccc(OC)c(OC)n3)c2s1 [Compound 7] | 400 (≈ 692 µM) | 400 to 800 (≈ 692 to 1380 µM) | ≤ 0.25 | ≤ 0.25 | 0.25 to 1 (≈ 0.433 to 1.73 µM) | ≤ 0.25
CCNC(=O)Nc1nc2cc(-c3cnc(N4CCC(C)(C(=O)O)C(C)C4)nc3)cc(-c3ccccn3)c2s1 (stereo not drawn) [Compound 9] | ≥ 800 | > 800 | ≤ 0.25 | ≤ 0.25 | 1 to 16 (≈ 1.88 to 30.1 µM) | ≤ 0.25
CCNC(=O)Nc1nc2cc(-c3cnc(N4CCC(C)(C(=O)O)CC4)nc3)cc(-c3ncccc3C#N)c2s1 [Compound 13] | 100 (≈ 184 µM) | 12.5 to 400 (≈ 23 to 737 µM) | ≤ 0.25 | ≤ 0.25 | 1 to 16 (≈ 1.84 to 29.5 µM) | ≤ 0.25

The remaining lines, values ahead:

solubility at 24 h (physchem; Solubility (pH 7.4)) [µg/mL] | solubility at 24 h (physchem; Solubility Range) [µg/mL] | MIC [1] [µg/mL] | MIC [2] [µg/mL] | MIC [3] [µg/mL] | MIC [4] [µg/mL] | Compound
400 (≈ 752 µM) | 400 to 800 (≈ 752 to 1500 µM) | ≤ 0.25 | ≤ 0.25 | 1 to 16 (≈ 1.88 to 30.1 µM) | ≤ 0.25 | CCNC(=O)Nc1nc2cc(-c3cnc(N4CCC(C)(C(=O)O)CC4)nc3)cc(-c3cc(C)ccn3)c2s1 [Compound 6, 1-[5-[2-(ethylcarbamoylamino)-7-(4-methyl-2-pyridyl)-1,3-benzothiazol-5-yl]pyrimidin-2-yl]-4-methyl-piperidine-4-carboxylic acid]
100 (≈ 182 µM) | 12.5 to 400 (≈ 22.8 to 729 µM) | ≤ 0.25 | ≤ 0.25 | 1 to 16 (≈ 1.82 to 29.2 µM) | ≤ 0.25 | CCNC(=O)Nc1nc2cc(-c3cnc(N4CCC(C)(C(=O)O)CC4)nc3)cc(-c3nccc(OC)n3)c2s1 [Compound 8]
100 (≈ 187 µM) | 12.5 to 400 (≈ 23.3 to 747 µM) | ≤ 0.25 | ≤ 0.25 | 1 to 16 (≈ 1.87 to 29.9 µM) | ≤ 0.25 | CCNC(=O)Nc1nc2cc(-c3cnc(N4CCC(C)(C(=O)O)CC4)nc3)cc(-c3cc(F)ccn3)c2s1 [Compound 10]
≥ 800 | > 800 | ≤ 0.25 | ≤ 0.25 | 1 to 16 (≈ 1.93 to 30.9 µM) | ≤ 0.25 | CCNC(=O)Nc1nc2cc(-c3cnc(N4CCC(C)(C(=O)O)CC4)nc3)cc(-c3cnccn3)c2s1 [Compound 11]
≥ 800 | > 800 | ≤ 0.25 | ≤ 0.25 | 1 to 16 (≈ 1.88 to 30 µM) | ≤ 0.25 | CCNC(=O)Nc1nc2cc(-c3cnc(N4CCC(C)(C(=O)O)CC4)nc3)cc(-c3nccc(C)n3)c2s1 [Compound 12]
≥ 800 | > 800 | ≤ 0.25 | ≤ 0.25 | 0.25 to 1 (≈ 0.461 to 1.84 µM) | ≤ 0.25 | CCNC(=O)Nc1nc2cc(-c3cnc(N4CCC(C)(C(=O)O)CC4)nc3)cc(-c3ccc(C#N)cn3)c2s1 [Compound 14]
≥ 800 | > 800 | ≤ 0.25 | ≤ 0.25 | 0.25 to 1 (≈ 0.456 to 1.82 µM) | ≤ 0.25 | CCNC(=O)Nc1nc2cc(-c3cnc(N4CCC(C)(C(=O)O)CC4)nc3)cc(-c3cc(OC)ncn3)c2s1 [Compound 15]
6.25 (≈ 11.5 µM) | < 12.5 | ≤ 0.25 | ≤ 0.25 | 1 to 16 (≈ 1.84 to 29.5 µM) | ≤ 0.25 | CCNC(=O)Nc1nc2cc(-c3cnc(N4CCC(C)(C(=O)O)CC4)nc3)cc(-c3cc(C#N)ccn3)c2s1 [Compound 16]
